The values below come from patent US20250361230A1, “LATS Inhibitors and Uses Thereof” (The USA, as Represented by the Secretary, Dept. of Heath …, priority 2022, published 2025).

This test addresses AKT (Homo sapiens, UniProt P31749). The experiment in a line: RBC HotSpot kinase assay (33P-ATP, P81 filter-binding), AKT. The test is classed as biochemical. To be noted: biochemical kinase inhibition; read-out: AKT IC50. The gist of the method:
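Compounds were run as single 10-point titrations to give IC50 values in nM. Each kinase was mixed with substrate and cofactors in 20 mM Hepes pH 7.5 reaction buffer with 1% DMSO, then exposed to compound for 20 min. 33P-ATP was added for a 2 h room-temperature reaction, with activity measured by P81 filter binding.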

Sequence of AKT (P31749 whole entry): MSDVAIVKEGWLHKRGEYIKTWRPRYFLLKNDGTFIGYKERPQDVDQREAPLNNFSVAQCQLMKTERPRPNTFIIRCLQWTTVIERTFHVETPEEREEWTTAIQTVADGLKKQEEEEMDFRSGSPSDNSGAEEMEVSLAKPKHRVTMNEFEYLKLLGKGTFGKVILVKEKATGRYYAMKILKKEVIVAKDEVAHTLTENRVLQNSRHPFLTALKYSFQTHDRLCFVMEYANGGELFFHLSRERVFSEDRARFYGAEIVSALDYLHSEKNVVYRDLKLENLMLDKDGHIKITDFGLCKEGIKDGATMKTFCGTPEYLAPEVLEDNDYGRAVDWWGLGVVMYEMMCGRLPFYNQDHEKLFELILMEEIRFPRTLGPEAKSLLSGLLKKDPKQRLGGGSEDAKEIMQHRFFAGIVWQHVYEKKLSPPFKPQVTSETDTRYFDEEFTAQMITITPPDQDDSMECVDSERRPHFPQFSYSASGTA

As for `Cc1cc(-c2ccnc3[nH]cc(C#N)c23)ccc1[C@@]1(O)[C@H](C)CN(C2CCS(=O)(=O)CC2)C[C@@H]1C` [Compound 2003, 4-(4-((3S,4s,5R)-1-(1,1-dioxidotetrahydro-2H-thiopyran-4-yl)-4-hydroxy-3,5-dimethylpiperidin-4-yl)-3-methylphenyl)-1H-pyrrolo[2,3-b]pyridine-3-carbonitrile], the IC50 (as a rule, the concentration that gives 50% inhibition) was 12.1 nM.
